Test results: ChEMBL document CHEMBL1201862, “PubChem BioAssay data set” (2004)
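96-well plates; 48 h exposure; 5 concentrations. Endpoints by linear interpolation between flanking doses. Not reached: highest tested concentration assigned. The concentration for 50% growth inhibition is given as GI50.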 The source made the active and inactive calls. Cut-off read from the data, not from the text of the source: active = GI50 up to about 1.1 µM and inactive = higher.

Tests used:
Experiment in all cases: inhibition of tumour cell growth, NCI panel, 48 h
OVCAR-8 = tested on: OVCAR-8
HCT-15 = tested on: HCT-15
PC-3 = tested on: PC-3
EKVX = tested on: EKVX
Hs-578T = tested on: Hs-578T
UACC-257 = tested on: UACC-257
HCT-116 = tested on: HCT-116
TK-10 = tested on: TK-10
SW-620 = tested on: SW-620
CCRF-CEM = tested on: CCRF-CEM
MOLT-4 = tested on: MOLT-4
T47D = tested on: T47D
UACC-62 = tested on: UACC-62
SK-MEL-2 = tested on: SK-MEL-2
OVCAR-3 = tested on: OVCAR-3
NCI-H460 = tested on: NCI-H460
HOP-92 = tested on: HOP-92
A549 = tested on: A549
HCC 2998 = tested on: HCC 2998

Structure (SMILES) | GI50 (OVCAR-8) | GI50 (HCT-15) [µM] | GI50 (PC-3) | GI50 (EKVX) | GI50 (Hs-578T) | GI50 (UACC-257) | GI50 (HCT-116) | GI50 (TK-10) | GI50 (SW-620) | GI50 (CCRF-CEM) | GI50 (MOLT-4) | GI50 (T47D) | GI50 (UACC-62) | GI50 (SK-MEL-2) | GI50 (OVCAR-3) | GI50 (NCI-H460) | GI50 (HOP-92) | GI50 (A549) | GI50 (HCC 2998)
COc1c2c3c4c(c(OC)c(=O)c5c(O)cc(OC)c(c6c(OC)cc(O)c(c1=O)c63)c54)C(C(C)O)C2C(C)=O (stereo not given) | 0.321 µM (active) | 0.652 | 0.26 µM (active) | 0.482 µM (active) | 0.593 µM (active) | 0.521 µM (active) | 0.385 µM (active) | 0.581 µM (active) | 0.395 µM (active) | 0.269 µM (active) | 0.279 µM (active) | 0.454 µM (active) | 0.483 µM (active) | 0.738 µM (active) | 0.338 µM (active) | 0.226 µM (active) | 0.225 µM (active) | 0.353 µM (active) | 0.481 µM (active)
CSC1SCC2C(=O)N(C)C3(CC3C)C(=O)OCC(NC(=O)c3nc4ccccc4cc3O)C(=O)NC(C)C(=O)N(C)C1C(=O)N(C)C1(CC1C)C(=O)OCC(NC(=O)c1nc3ccccc3cc1O)C(=O)NC(C)C(=O)N2C (stereo not given) | < 0.0001 µM (active) | 0.0146 | < 0.0001 µM (active) | 0.1 µM (active) | < 0.0001 µM (active) | 0.1 µM (active) | < 0.0001 µM (active) | < 0.0001 µM (active) | < 0.0001 µM (active) | < 0.0001 µM (active) | < 0.0001 µM (active) | < 0.0001 µM (active) | < 0.0001 µM (active) | < 0.0001 µM (active) | < 0.0001 µM (active) | < 0.0001 µM (active) | < 0.0001 µM (active) | < 0.0001 µM (active) | < 0.0001 µM (active)
CC1NC(=O)c2c(-c3ccccc3)nn(-c3ccccc3)c2NC1=O (stereo not given) | > 100 µM (inactive) | > 100 | > 100 µM (inactive) | > 100 µM (inactive) | > 100 µM (inactive) | > 100 µM (inactive) | > 100 µM (inactive) | > 100 µM (inactive) | > 100 µM (inactive) | > 100 µM (inactive) | > 100 µM (inactive) | > 100 µM (inactive) | > 100 µM (inactive) | > 100 µM (inactive) | 37.4 µM (inactive) | > 100 µM (inactive) | > 100 µM (inactive) | > 100 µM (inactive) | > 100 µM (inactive)
CC(=O)c1[nH]c(NCc2ccccc2)c(C(=S)Nc2ccccc2)c1N | 18.6 µM (inactive) | 19.1 | 39.6 µM (inactive) | 27.1 µM (inactive) | 24 µM (inactive) | 24.2 µM (inactive) | 18.4 µM (inactive) | 27.5 µM (inactive) | 32.1 µM (inactive) | 28.1 µM (inactive) | 36.7 µM (inactive) | 22 µM (inactive) | 16.6 µM (inactive) | 0.258 µM (active) | 26.7 µM (inactive) | 22.8 µM (inactive) | 14.9 µM (inactive) | 27 µM (inactive) | 20.5 µM (inactive)
COc1cccc2c(=O)c3c(n(C)c12)OC(C(C)C)C3 (stereo not given) | > 100 µM (inactive) | 46.9 | > 100 µM (inactive) | 89.5 µM (inactive) | > 100 µM (inactive) | > 100 µM (inactive) | > 100 µM (inactive) | > 100 µM (inactive) | > 100 µM (inactive) | > 100 µM (inactive) | 16.9 µM (inactive) | 87.3 µM (inactive) | > 100 µM (inactive) | > 100 µM (inactive) | > 100 µM (inactive) | 52.1 µM (inactive) | > 100 µM (inactive) | > 100 µM (inactive) | > 100 µM (inactive)
COC(=O)C(Cc1ccccc1)NS(=O)(=O)c1ccc(-c2c3nc(c(-c4ccc(S(=O)(=O)NC(Cc5ccccc5)C(=O)OC)cc4)c4ccc([nH]4)c(-c4ccc(S(=O)(=O)NC(Cc5ccccc5)C(=O)OC)cc4)c4nc(c(-c5ccc(S(=O)(=O)NC(Cc6ccccc6)C(=O)OC)cc5)c5ccc2[nH]5)C=C4)C=C3)cc1 (stereo not given) | > 100 µM (inactive) | > 100 | > 100 µM (inactive) | > 100 µM (inactive) | 17.1 µM (inactive) | > 100 µM (inactive) | > 100 µM (inactive) | > 100 µM (inactive) | > 100 µM (inactive) | > 100 µM (inactive) | > 100 µM (inactive) | > 100 µM (inactive) | > 100 µM (inactive) | > 100 µM (inactive) | > 100 µM (inactive) | 85.5 µM (inactive) | 31.8 µM (inactive) | > 100 µM (inactive) | > 100 µM (inactive)
CC12CCCCC1=C(F)C(F)(F)S2 (stereo not given) | 35.8 µM (inactive) | 32.7 | 40.7 µM (inactive) | > 78.7 µM (inactive) | > 21.5 µM (inactive) | 20.1 µM (inactive) | 22.1 µM (inactive) | 39.2 µM (inactive) | 24.5 µM (inactive) | 8.65 µM (inactive) | 11.3 µM (inactive) | 26.7 µM (inactive) | 42.4 µM (inactive) | 75.2 µM (inactive) | 19.7 µM (inactive) | > 100 µM (inactive) | 23.6 µM (inactive) | > 79.3 µM (inactive) | > 67.1 µM (inactive)
Nc1nc(Cl)cc(NCC2(CO)CC(=O)C2)n1 | 65.3 µM (inactive) | > 100 | > 100 µM (inactive) | 98.6 µM (inactive) | > 100 µM (inactive) | > 100 µM (inactive) | > 100 µM (inactive) | > 100 µM (inactive) | > 100 µM (inactive) | > 100 µM (inactive) | > 100 µM (inactive) | 21.2 µM (inactive) | 86.7 µM (inactive) | > 100 µM (inactive) | > 100 µM (inactive) | > 100 µM (inactive) | > 100 µM (inactive) | > 100 µM (inactive) | > 100 µM (inactive)
CC(=O)OC1c2ccccc2CC2(OC(C)=O)c3ccccc3C12 (stereo not given) | > 100 µM (inactive) | > 100 | > 100 µM (inactive) | > 100 µM (inactive) | > 100 µM (inactive) | > 100 µM (inactive) | > 100 µM (inactive) | > 100 µM (inactive) | > 100 µM (inactive) | > 100 µM (inactive) | > 100 µM (inactive) | > 100 µM (inactive) | > 100 µM (inactive) | > 100 µM (inactive) | > 100 µM (inactive) | > 100 µM (inactive) | 91 µM (inactive) | > 100 µM (inactive) | > 100 µM (inactive)
NC(=S)N/N=C/C1NCCC2CCCCC21 (stereo not given) | 0.149 µM (active) | 0.0895 | 0.363 µM (active) | 0.611 µM (active) | 1.15 µM (inactive) | 0.601 µM (active) | 0.281 µM (active) | 0.33 µM (active) | 0.568 µM (active) | 0.31 µM (active) | 0.257 µM (active) | 0.282 µM (active) | 0.0452 µM (active) | 0.824 µM (active) | 0.312 µM (active) | 0.231 µM (active) | 0.0641 µM (active) | 0.262 µM (active) | 0.108 µM (active)
